Measurements from US20130078185A1, “NITROIMIDAZOLE DERIVATIVES” (GE HEALTHCARE LIMITED, priority 2010, published 2013).
Converted amounts (≈) assume the structure as drawn. Read-outs that look alike come from different tables or passages of the source.

Tests used:
VERO cells = assay: cells; type: cell-based, African green monkey (Cercopithecus aethiops); conditions: Chlorocebus sabaeus
[1] = test system: Mycobacterium tuberculosis strain H37Rv; assay: microplate alamar blue assay (MABA) MIC; type: cell-based; conditions: M. tuberculosis H37Rv, BACTEC 12B medium, MIC90 = 90% reduction in fluorescence relative to controls
Protocol: Screening was done to get MIC for M. tuberculosis using both the microplate alamar blue assay (MABA) and low-oxygen recovery assay (LORA).
The initial screen was conducted against Mycobacterium tuberculosis strain H37Rv (American Type Culture Collection number 27294) in BACTEC 12B medium (Becton-Dickinson) using the MABA. Compounds were tested in ten 2-fold dilutions, typically from 100 μg/mL to 0.19 μg/mL. The MIC90 is defined as the concentration effecting a reduction in fluorescence of 90% relative to controls. This value is determined from the dose-response curve using a curve-fitting program. Any MIC90 value of ≦10 μg/mL was considered “active” for antitubercular activity. 3(h) Method for Determining IC50

Compound	IC50 (VERO cells; VERO cell cytotoxicity, 72 hours exposure, ATP viability readout, read-out: IC50) [µg/mL]	MIC [1] [µg/mL]	IC50 (VERO cells; Vero, 72 h) [µg/mL]
C[C@]1(COc2ccc(I)cc2)Cn2cc([N+](=O)[O-])nc2O1 [Example 2, (R)-2-((4-Iodophenoxy)methyl)-2-methyl-6-nitro-2,3-dihydroimidazo[2,1-b]oxazole]	> 50	< 0.195	–
C[C@]1(COc2ccccc2)Cn2cc([N+](=O)[O-])nc2O1 [Example 1, (R)-2-Methyl-6-nitro-2-(phenoxymethyl)-2,3-dihydroimidazo[2,1-b]oxazole]	–	1.33 (≈ 4.83 µM)	> 50
